Results: publication PMC9699638, “Study of Membrane-Immobilized Oxidoreductases in Wastewater Treatment for Micropollutants Removal” (International Journal of Molecular Sciences, 2022)
Counter-ions that a name gives are not always drawn.

Assays:
laccase = tested on: T1, laccase; settings: free enzyme; 50 mM acetate buffer pH 5; apparent
T1 construct: gene LCC2

[1] = tested on: T2, horseradish peroxidase (HRP); settings: free enzyme; 50 mM phosphate buffer pH 7; co-substrate H2O2 (10 mM); apparent
T2 construct: gene PRXC1A

- Km (laccase): 87 µM
- Km [1]: 1330 µM
SMILES: CCn1c(=NN=c2sc3cc(S(=O)(=O)O)ccc3n2CC)sc2cc(S(=O)(=O)O)ccc21 [2,2′-azino-bis(3-ehylbenzothiazoline-6-sulfonic acid), diammonium salt]
